US9573953B2, “Heteroaromatic compounds as PI3 kinase modulators and methods of use” (CALITOR SCIENCES, LLC, priority 2013, dated 2017)

How the values were obtained:
[1] = Compound stability in human liver microsomes; format: in vitro ADME; conditions: for half-life at 5 μM / CLint scaled at 5 μM: pH 7.4; for CLint scaled at 5 μM: human liver microsomes, in vivo CLint extrapolated
Method: (§1) Human or rat liver microsomes incubations were conducted in duplicate in polypropylene tubes. The typical incubation mixtures consisted of human or rat liver microsomes (0.5 mg protein/mL), compounds of interest (5 μM) and NADPH (1.0 mM) in a total volume of 200 μL potassium phosphate buffer (PBS, 100 mM, pH=7.4). Compounds were dissolved in DMSO and diluted with PBS such that the final concentration of DMSO was 0.05%. The enzymatic reactions were commenced with the addition of protein after a 3-min preincubation and incubated in a water bath open to the air at 37° C. Reactions were terminated at various time points (0, 5, 10, 15, 30, 60 min) by adding equal volume of ice-cold acetonitrile. The samples were stored at −80° C. until LC/MS/MS assays.
(§2) The concentrations of compounds in the incubation mixtures of human or rat liver microsomes were determined by a LC/MS/MS method. The ranges of the linearity in the concentration range were determined for each tested compounds.
(§3) A parallel incubation was performed using denatured microsomes as the negative control, and reactions were terminated at various time points (0, 15, 60 min) after incubation at 37° C.
(§4) Dextromethorphan (70 μM) was selected as the positive control, and reactions were terminated at various time points (0, 5, 10, 15, 30, 60 min) after incubation at 37° C. Both positive and negative control samples were included in each assay to ensure the integrity of the microsomal incubation system.
(§5) The concentrations of compounds in human or rat liver microsome incubations were plotted as a percentage of the relevant zero time point control for each reaction. The in vivo CLint were extrapolated (ref.: Naritomi Y, Terashita S, Kimura S, Suzuki A, Kagayama A, Sugiyama Y. “Prediction of human hepatic clearance from in vivo animal experiments and in vitro metabolic studies with liver microsomes from animals and humans”, Drug Metabolism and Disposition, 2001, 29, 1316-1324).

[2] = Compound stability in rat liver microsomes; format: in vitro ADME; conditions: for half-life at 5 μM / CLint scaled at 5 μM: pH 7.4; for CLint scaled at 5 μM: rat liver microsomes, in vivo CLint extrapolated
Method: as §1, §2, §3, §4, §5

[3] = molecular target: T1, mTOR (h) (Homo sapiens, UniProt P42345); assay: mTOR (h) kinase assay; format: biochemical
T1 construct: purchased Millipore UK Ltd (assays run there as a service)
Method: mTOR (h) is incubated with 50 mM HEPES pH 7.5, 1 mM EDTA, 0.01% TWEEN®20, 2 mg/mL substrate, 3 mM Manganese Chloride and [γ-^33P-ATP] (specific activity approx. 500 cpm/pmol, concentration as required). The reaction is initiated by the addition of the MnATP mix. After incubation for 40 minutes at room temperature, the reaction is stopped by the addition of 3% phosphoric acid solution. Aliquote of the reaction (10 μL) is then spotted onto a P30 filtermat and washed three times for 5 minutes in 75 mM phosphoric acid and once in methanol prior to drying and scintillation counting.
(§6) The kinase assays described herein were performed at Millipore UK Ltd, Dundee Technology Park, Dundee DD2 1SW, UK.

[4] = molecular target: T2, PI3K p110β/p85α (h) (Homo sapiens, UniProt P42338); assay: PI3K p110β/p85α (h) non-radioactive (HTRF) assay; format: biochemical
T2 construct: purchased Millipore UK Ltd (assays run there as a service)
T2 sequence (P42338 whole entry): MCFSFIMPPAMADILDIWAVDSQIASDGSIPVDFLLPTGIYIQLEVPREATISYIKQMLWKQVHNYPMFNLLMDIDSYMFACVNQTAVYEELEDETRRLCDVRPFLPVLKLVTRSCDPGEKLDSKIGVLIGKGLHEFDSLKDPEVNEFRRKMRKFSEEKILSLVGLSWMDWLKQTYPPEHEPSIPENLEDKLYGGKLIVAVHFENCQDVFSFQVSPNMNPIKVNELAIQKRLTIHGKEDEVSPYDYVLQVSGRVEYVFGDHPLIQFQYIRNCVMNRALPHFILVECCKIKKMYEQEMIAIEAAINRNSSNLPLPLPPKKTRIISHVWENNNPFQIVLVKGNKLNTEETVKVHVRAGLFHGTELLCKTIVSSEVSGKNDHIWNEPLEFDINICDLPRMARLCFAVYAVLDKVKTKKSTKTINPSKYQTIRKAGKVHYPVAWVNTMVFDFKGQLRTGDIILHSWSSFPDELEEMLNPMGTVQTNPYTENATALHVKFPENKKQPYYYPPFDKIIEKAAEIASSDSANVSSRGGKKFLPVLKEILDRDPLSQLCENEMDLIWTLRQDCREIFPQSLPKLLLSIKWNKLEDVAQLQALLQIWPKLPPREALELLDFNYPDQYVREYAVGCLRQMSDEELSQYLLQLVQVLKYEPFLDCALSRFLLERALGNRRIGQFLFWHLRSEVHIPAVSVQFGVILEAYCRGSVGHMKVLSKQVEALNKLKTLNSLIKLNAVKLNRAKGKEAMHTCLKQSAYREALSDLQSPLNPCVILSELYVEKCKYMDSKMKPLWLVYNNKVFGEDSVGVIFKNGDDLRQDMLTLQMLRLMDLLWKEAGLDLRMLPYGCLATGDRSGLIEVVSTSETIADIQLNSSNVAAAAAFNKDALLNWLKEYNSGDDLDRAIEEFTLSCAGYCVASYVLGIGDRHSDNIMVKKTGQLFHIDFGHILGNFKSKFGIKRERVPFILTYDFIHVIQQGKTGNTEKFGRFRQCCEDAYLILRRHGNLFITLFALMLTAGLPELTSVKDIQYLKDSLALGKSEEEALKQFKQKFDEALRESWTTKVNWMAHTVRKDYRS
T2 sequence (P27986 whole entry partner): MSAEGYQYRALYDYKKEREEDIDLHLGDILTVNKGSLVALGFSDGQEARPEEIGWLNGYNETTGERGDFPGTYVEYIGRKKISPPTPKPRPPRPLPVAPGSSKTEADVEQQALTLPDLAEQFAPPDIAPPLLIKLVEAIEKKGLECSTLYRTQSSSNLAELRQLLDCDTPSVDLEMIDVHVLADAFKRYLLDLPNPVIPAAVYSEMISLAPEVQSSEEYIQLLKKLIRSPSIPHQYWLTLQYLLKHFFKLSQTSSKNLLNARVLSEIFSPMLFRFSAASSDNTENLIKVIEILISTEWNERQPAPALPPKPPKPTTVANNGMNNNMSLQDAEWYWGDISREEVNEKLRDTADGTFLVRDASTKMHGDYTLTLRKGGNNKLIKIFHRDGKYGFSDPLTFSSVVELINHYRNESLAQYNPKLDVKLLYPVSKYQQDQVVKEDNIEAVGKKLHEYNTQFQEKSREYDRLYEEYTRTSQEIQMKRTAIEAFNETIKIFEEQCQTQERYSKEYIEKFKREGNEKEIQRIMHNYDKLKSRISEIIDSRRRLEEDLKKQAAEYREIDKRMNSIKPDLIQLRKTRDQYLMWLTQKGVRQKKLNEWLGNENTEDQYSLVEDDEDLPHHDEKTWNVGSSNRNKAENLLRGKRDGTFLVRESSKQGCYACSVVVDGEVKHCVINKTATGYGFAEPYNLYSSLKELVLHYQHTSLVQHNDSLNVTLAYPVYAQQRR
Method: PI3K p110β/p85α (h) [Non-Radioactive Assay]
(§7) PI3K (p110β/p85α) (h) is incubated in assay buffer containing 10 μM phosphatidylinositol-4,5-bisphosphate and MgATP (concentration as required). The reaction is initiated by the addition of the MgATP mix. After incubation for 30 minutes at room temperature, the reaction is stopped by the addition of stop solution containing EDTA and biotinylated phosphatidylinositol-3,4,5-trisphosphate. Finally, detection buffer is added, which contains europium-labelled anti-GST monoclonal antibody, GST-tagged GRP1 PH domain and streptavidin-allophycocyanin. The plate is then read in time-resolved fluorescence mode and the homogenous time-resolved fluorescence (HTRF) signal is determined according to the formula HTRF=10000×(Em665 nm/Em620 nm).
as §6

[5] = molecular target: T3, PI3K (p110δ/p85α) (h) (Homo sapiens, UniProt O00329); assay: PI3K (p110δ/p85α) (h) non-radioactive (HTRF) assay; format: biochemical
T3 construct: purchased Millipore UK Ltd (assays run there as a service)
T3 sequence (O00329 whole entry): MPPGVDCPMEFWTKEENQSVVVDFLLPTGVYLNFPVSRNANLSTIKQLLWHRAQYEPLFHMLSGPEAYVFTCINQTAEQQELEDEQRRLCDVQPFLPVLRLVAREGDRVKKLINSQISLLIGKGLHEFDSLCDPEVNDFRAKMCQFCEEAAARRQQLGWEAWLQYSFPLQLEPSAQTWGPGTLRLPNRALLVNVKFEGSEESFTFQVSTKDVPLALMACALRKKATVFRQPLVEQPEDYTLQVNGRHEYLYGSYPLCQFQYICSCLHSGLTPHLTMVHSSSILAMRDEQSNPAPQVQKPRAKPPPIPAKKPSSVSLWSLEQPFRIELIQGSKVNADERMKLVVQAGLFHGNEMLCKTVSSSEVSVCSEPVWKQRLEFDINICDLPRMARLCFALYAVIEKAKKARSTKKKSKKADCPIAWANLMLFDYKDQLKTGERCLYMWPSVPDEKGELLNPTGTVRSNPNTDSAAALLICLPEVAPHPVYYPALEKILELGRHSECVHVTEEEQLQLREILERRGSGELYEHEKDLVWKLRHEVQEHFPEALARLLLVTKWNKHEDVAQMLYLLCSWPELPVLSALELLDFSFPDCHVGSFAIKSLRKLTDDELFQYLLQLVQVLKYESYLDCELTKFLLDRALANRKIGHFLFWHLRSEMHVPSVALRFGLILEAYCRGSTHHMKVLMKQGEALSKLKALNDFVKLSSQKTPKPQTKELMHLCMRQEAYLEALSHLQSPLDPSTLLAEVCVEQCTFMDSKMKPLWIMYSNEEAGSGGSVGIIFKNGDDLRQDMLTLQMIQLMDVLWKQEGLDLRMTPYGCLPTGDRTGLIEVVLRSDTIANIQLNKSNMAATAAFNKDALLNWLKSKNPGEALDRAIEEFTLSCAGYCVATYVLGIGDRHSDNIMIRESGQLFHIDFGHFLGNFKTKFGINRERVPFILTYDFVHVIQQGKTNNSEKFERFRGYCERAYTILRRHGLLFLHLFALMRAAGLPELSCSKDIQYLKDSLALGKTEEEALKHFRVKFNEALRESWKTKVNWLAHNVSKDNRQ
T3 sequence (P27986 whole entry partner): as the sequence (P27986 whole entry partner) above
Method: PI3K (p110δ/p85α) (h) [Non-Radioactive Assay]
as §7, with “(p110δ/p85α)” for “(p110β/p85α)”
as §6

[6] = test system: U87MG glioblastoma cells; assay: Tumor xenograft model (U87MG), tumor growth inhibition; format: in vivo, mice; conditions: oral gavage
Method: The efficacy of compounds disclosed herein was evaluated in a standard murine model of tumorigenesis. Human tumor cells (U87MG glioblastoma cells from ATCC) were expended in culture, harvested, and injected subcutaneously onto the rear flank of 6-7 week old female athymic nude mice (BALB/cA nu/nu, Hunan SLAC Laboratory Animal, Co.) (n=6-10 for vehicle group and for each dosing group). When tumors reached a volume of 100-250 mm^3, animals were randomly divided into vehicle control (for example, 5% DMSO+70% CAPTISOL® (30%), 7% HCl (pH1), 18% CAPTISOL® (30%); or 7% DMSO, 7% HCl (pH1), 70% CAPTISOL® (30%), 16% CAPTISOL® (30%), or the like) and compound groups. Subsequent administration of compound by oral gavage begins anywhere from day 0 to day 15 post tumor cell challenge and generally continues with once a day for the duration of the experiment.
Progression of tumor growth is assessed by tumor volumes and recorded as a function of time. The long (L) and short (W) axes of the subcutaneous tumors were measured with calipers twice weekly, and the tumor volume (TV) calculated as (L×W^2)/2). TGI was calculated from the difference between the median tumor volumes of vehicle-treated and drug-treated mice, expressed as a percentage of the median tumor volume of the vehicle-treated control group, by the following relation:
Initial statistical analysis is done by repeated measures analysis of variance (RMANOVA), followed by Scheffe post hoc testing for multiple comparisons. Vehicle alone (5% DMSO+70% CAPTISOL® (30%), 7% HCl (pH1), 18% CAPTISOL® (30%); or 7% DMSO, 7% HCl (pH1), 70% CAPTISOL® (30%), 16% CAPTISOL® (30%), or the like) is the negative control.

[7] = human liver microsomes 0.5 mg protein/mL, compound 5 μM, NADPH, 37° C.
[8] = rat liver microsomes 0.5 mg protein/mL, compound 5 μM, NADPH, 37° C.

Row | half-life at 5 μM [1, 7] [h] | CLint scaled at 5 μM [1] [mL/min/kg] | half-life at 5 μM [2, 8] [h] | CLint scaled at 5 μM [2] [mL/min/kg] | IC50 [3] [nM] | IC50 [4] [nM] | IC50 [5] [nM] | T1/2 [1, 7] | T1/2 [2, 8] | SMILES | TGI % U87MG ([6]; 1 mg/kg, 12 days) [%] | TGI % U87MG ([6]; 3 mg/kg, 12 days) [%] | TGI % U87MG ([6]; 10 mg/kg, 12 days) [%] | TGI % U87MG ([6]; 0.3 mg/kg, 13 days) [%] | TGI % U87MG ([6]; 1 mg/kg, 13 days) [%] | TGI % U87MG ([6]; 3 mg/kg, 13 days) [%] | TGI % U87MG ([6]; 10 mg/kg, 13 days) [%]
1 | 11.8 | 2.45 | 2.92 | 14.2 | 9 | 84 | 5 |  |  | COc1ncc(-c2ccn3ncc(C#CCO)c3n2)cc1NS(=O)(=O)c1ccc(F)cc1F [Ex. 1, 2,4-difluoro-N-(5-(3-(3-hydroxyprop-1-yn-1-yl)pyrazolo[1,5-a]pyrimidin-5-yl)-2-methoxypyridin-3-yl)benzenesulfonamide] | 26 | 37 | 68 |  |  |  | 
2 |  |  |  |  | 4 | 45 | 5 | ∞ | ∞ | COc1ncc(-c2ccn3ncc(C#N)c3n2)cc1NS(=O)(=O)c1ccc(F)cc1F [Ex. 2, N-(5-(3-cyanopyrazolo[1,5-a]pyrimidin-5-yl)-2-methoxypyridin-3-yl)-2,4-difluorobenzenesulfonamide] | 59 | 76 |  |  |  |  | 
3 | 40.1 | 0.72 | 9.59 | 4.32 | 4 | 41 | 2 |  |  | COc1ncc(-c2ccn3ncc(C#N)c3c2)cc1NS(=O)(=O)c1ccc(F)cc1F [Ex. 3, N-(5-(3-cyanopyrazolo[1,5-a]pyridin-5-yl)-2-methoxypyridin-3-yl)-2,4-difluorobenzenesulfonamide] |  |  |  | 26 | 70 | 95 | 
4 | 4.99 | 5.81 | 2.56 | 16.2 | 4 | 22 | 1 |  |  | COc1ncc(-c2ccn3ncc(C#CCO)c3c2)cc1NS(=O)(=O)c1ccc(F)cc1F [Ex. 4, 2,4-difluoro-N-(5-(3-(3-hydroxyprop-1-yn-1-yl)pyrazolo[1,5-a]pyridin-5-yl)-2-methoxypyridin-3-yl)benzenesulfonamide] |  |  |  |  | 32 | 53 | 89
